For one assay, the target named is T1, PLK1 (Homo sapiens, UniProt P53350).
T1 construct: purchased Invitrogen PV3501
As to the kind of experiment: PLK1 inhibition assay (Z-Lyte). The assay is classed as biochemical. The following applies: dose of 10 μM; read-out: PLK1 relative inhibition percentage.

The next assay has as its target T2, PLK2 (Homo sapiens, UniProt Q9NYY3).
T2 construct: purchased Invitrogen PV4204
As to the kind of experiment: PLK2 inhibition assay (Z-Lyte). The following applies: dose of 10 μM; read-out: PLK2 relative inhibition percentage. The assay is classed as biochemical. As to the method: PLK2 inhibition was determined using the Z-Lyte assay kit from Invitrogen (cat# PV3802). The assay was performed using the recommended manufacturer's instructions with 60 μM ATP and 133 nM PLK2 (Invitrogen cat #PV4204). The % inhibition values were determined according to the manufacturer's directions and IC50 values were obtained using a non-linear 4 point logistic curve fit (XLfit4, IDBS)

For assay [1], the system named is HCT116 p53^+/+ colon cancer cell line. The experiment in a line: Cell growth inhibition, SRB assay, extended panel. The assay is classed as cell-based. The following applies: Homo sapiens, HCT-116, read-out: GI50 Range HCT116 p53^+/+. As to the method:
(§1) Breast cancer cells (MCF-7, MDA-MB-468 and HCC1954), colon cancer cells (SW620) and lung cancer cells (A549), together with human mammary epithelial primary cells (HMEC) were seeded (1000 to 4000 per 80 μl per well depending on the cell growth rate) into 96-well plates 24 hours before compound overlay. Compounds were prepared as 10 mM stock solutions in 100% DMSO which were diluted with DMEM (Dulbecco's Modified Eagle's Medium) cell growth Medium (Invitrogen, Canada) containing 10% FBS (Fetal Bovine Serum) to concentrations ranging from 50 nM to 250 μM. Aliquots (20 μl) from each concentration were overlaid to 80 μl of the pre-seeded cells in the 96-plates to make final concentrations of 10 nM to 50 μM. The cells were cultured for 5 days before the Sulforhodamine B (SRB) assay was performed to determine the compound's cell growth inhibition activity.
(§2) Sulforhodamine B (Sigma, Canada) is a water-soluble dye that binds to the basic amino acids of cellular proteins. Thus, colorimetric measurement of the bound dye provides an estimate of the total protein mass that is related to the cell number. The cells are fixed in situ by gently aspirating off the culture media and adding 50 μl ice cold 10% Trichloroacetic Acid (TCA) per well and incubated at 4° C. for 30-60 min. The plates are washed with water five times and allowed to air dry for 5 min. Addition of 50 μl 0.4% (w/v) SRB solution in 1% (v/v) acetic acid to each well and incubatation for […] at RT completes the staining reaction. Following staining, plates are washed four times with 1% acetic acid to remove unbound dye and then allowed to air dry for 5 min. The stain is solubilized with 100 μl of 10 mM Tris pH 10.5 per well. Absorbance is read at 570 nm.
(§3) The percentage (%) of relative growth inhibition was calculated by comparing to DMSO-treated only cells (100%). GI50's were determined for compounds with cytotoxic activity. The GI50 was calculated using GraphPad PRISM software (GraphPad Software, Inc., USA).
(§4) In addition to the cell lines tested as described above, selected compounds have been assayed against an extended panel. These include: breast cancer cell lines (T-47D, MDA-MB-231, Hs578T, 8T-474, SKBr-3 and HCC1954), a lung cancer cell line (H358), brain cancer cell lines (A172, Hs683 and SK-N-SH), colon cancer cell lines (Colo 205, HCT-15, HCT116 p53^+/+ and HCT116 p53^−/−), ovarian cancer cell lines (OVCAR-3, SK-OV-3 and SW626), a melanoma cell line (518A2), a prostate cancer cell line (PC-3) and an immortalized breast cell line (184A1). The SRB assay described above was used to assay test compounds against the extended panel (Table 6).

The subject of assay [2] is HCT116 p53^−/− colon cancer cell line. As to the kind of experiment: Cell growth inhibition, SRB assay, extended panel. The assay is classed as cell-based. Particulars: Homo sapiens, HCT-116, read-out: GI50 Range HCT116 p53^−/−. The procedure: as §1, §2, §3, §4

T2 sequence (Q9NYY3 whole entry): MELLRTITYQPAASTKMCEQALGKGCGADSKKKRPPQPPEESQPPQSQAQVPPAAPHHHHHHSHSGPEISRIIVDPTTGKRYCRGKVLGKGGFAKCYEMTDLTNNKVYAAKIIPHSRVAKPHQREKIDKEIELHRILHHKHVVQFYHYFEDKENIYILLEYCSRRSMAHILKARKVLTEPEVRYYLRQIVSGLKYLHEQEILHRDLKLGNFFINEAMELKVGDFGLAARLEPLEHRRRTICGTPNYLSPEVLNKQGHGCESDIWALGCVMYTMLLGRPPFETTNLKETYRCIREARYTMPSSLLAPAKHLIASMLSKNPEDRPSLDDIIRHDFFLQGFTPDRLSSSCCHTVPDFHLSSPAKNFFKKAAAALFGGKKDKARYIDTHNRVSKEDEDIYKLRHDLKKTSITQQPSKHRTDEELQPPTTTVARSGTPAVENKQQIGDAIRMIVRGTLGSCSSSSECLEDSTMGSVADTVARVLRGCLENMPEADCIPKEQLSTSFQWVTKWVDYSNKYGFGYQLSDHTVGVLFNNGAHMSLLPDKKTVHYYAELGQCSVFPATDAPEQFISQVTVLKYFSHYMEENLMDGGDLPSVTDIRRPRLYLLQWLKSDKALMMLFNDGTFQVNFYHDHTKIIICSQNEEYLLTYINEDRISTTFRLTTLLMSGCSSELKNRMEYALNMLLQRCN
T1 sequence (P53350 whole entry): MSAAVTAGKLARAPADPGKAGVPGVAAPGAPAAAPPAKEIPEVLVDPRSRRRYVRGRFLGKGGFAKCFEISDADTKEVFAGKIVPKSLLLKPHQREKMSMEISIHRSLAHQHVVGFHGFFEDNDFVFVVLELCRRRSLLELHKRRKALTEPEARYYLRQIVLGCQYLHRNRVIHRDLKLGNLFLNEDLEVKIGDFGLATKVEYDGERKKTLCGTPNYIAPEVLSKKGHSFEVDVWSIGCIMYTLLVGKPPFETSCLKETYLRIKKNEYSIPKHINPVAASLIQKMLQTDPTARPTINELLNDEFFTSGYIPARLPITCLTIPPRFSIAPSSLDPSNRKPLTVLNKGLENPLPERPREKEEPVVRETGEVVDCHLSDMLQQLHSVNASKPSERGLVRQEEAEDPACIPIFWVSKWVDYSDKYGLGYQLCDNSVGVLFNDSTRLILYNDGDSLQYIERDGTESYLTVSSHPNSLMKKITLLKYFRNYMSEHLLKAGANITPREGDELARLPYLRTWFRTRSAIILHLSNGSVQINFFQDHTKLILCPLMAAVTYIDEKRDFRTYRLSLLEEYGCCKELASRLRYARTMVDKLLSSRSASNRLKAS
Experimental for PLK1: PLK1 inhibition was determined using the Z-Lyte assay kit from Invitrogen (cat#PV3802). The assay was performed using the recommended manufacturer's instructions with 25 μM ATP and 8 nM PLK1 (Invitrogen cat #PV3501). The % inhibition values were determined according to the manufacturer's directions and IC50 values were obtained using a non-linear 4 point logistic curve fit (XLfit4, IDBS)

Consider `CN1CCN(c2ccc(/C=C/c3n[nH]c4cc(C=C5C(=O)Nc6ccccc65)ccc34)cn2)CC1` [Compound 32], for which the inhibition at 10 µM on PLK1 and at PLK2 was under 50% in each case. The GI50 in assay [1] and in assay [2] was under 5 µM throughout.

Source of the values: patent US8933070B2, “Methods of targeting PTEN mutant diseases and compositions therefor” (University Health Network, priority 2010, dated 2015).
